Measurements taken from paper PMC12799524, “Putative new biomarkers for renal transporter-mediated drug-drug interactions: Characterization as substrates of organic cation transporter 2, multidrug and toxin extrusion protein 1, and other important drug transporters” (Drug Metabolism and Disposition, 2025).
Like-named read-outs stand apart in the source and are kept apart here. Marks after values point to notes of the source that are not given here.

Experiments:
human OAT1 = target: T1, human OAT1 (Homo sapiens, UniProt Q4U2R8); assay: Uptake assay in HEK-OAT1 vs HEK-VC cells; format: in vitro ADME
T1 construct: expressed in transfected cells; host or cells: HEK293 (HEK-OAT1), plasmid pOAT1.31 in pcDNA3.1/Hy(-)
T1 sequence (Q4U2R8 1-563): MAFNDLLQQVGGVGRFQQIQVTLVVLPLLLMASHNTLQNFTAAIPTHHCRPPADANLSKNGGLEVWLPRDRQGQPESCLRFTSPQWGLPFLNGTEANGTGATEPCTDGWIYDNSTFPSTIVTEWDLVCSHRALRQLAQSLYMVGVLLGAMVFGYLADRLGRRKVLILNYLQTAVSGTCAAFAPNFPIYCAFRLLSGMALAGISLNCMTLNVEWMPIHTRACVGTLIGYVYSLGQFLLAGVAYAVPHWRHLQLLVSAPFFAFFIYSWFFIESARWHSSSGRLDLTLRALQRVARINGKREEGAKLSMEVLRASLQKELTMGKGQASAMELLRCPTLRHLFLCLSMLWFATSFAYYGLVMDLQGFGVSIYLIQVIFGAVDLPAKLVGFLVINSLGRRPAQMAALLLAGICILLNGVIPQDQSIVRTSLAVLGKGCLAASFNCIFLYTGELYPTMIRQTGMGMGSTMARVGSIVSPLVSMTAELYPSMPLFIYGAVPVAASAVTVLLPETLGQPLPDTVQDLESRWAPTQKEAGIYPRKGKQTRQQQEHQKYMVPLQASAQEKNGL
Protocol: Transport experiments were performed 48 hours after seeding.

MATE1 = target: T2, MATE1 (Homo sapiens, UniProt Q96FL8); assay: Intracellular accumulation and transcellular transport in MDCK-MATE1 monolayers; conditions: for Intracellular accumulation in MDCK-MATE1 cells compared to MDCK-VC cells / Transcellular basal to apical transport in MDCK-MATE1 cells vs MDCK-VC cells: 10 μM basal, 60 minutes
T2 sequence (Q96FL8 1-570): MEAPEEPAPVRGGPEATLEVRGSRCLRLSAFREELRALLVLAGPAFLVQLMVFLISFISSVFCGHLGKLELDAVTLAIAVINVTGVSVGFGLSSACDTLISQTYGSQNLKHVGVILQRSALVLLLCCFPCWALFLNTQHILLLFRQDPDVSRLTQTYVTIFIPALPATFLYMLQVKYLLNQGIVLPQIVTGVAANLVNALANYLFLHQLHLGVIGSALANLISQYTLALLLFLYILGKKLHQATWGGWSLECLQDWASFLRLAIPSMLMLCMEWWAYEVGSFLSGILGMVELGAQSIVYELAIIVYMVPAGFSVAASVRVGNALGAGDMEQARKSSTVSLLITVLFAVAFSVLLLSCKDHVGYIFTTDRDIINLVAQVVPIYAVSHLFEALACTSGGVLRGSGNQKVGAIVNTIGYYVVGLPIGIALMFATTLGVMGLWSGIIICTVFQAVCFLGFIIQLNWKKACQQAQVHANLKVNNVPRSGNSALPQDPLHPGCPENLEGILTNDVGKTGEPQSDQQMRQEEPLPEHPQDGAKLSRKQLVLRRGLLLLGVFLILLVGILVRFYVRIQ
Protocol: (§1) The intracellular accumulation and transcellular, basal to apical transport experiments were performed as previously described in monolayers of polarized single-transfected (MDCK-OCT2, MDCK-MATE1) and double-transfected (MDCK-OCT2-MATE1) MDCK cells, MDCK control cells (MDCK-VC), or Caco-2 cells.[22] In brief, cell monolayers were grown in cell culture inserts on porous membranes. For MDCK-VC, MDCK-OCT2 and Caco-2, 5 × 10^5 cells were used per well; for MDCK-OCT2-MATE1, 6 × 10^5 cells were used, and for MDCK-MATE1, 8 × 10^5 cells were used per well. Cells were grown to confluence for 72 hours, induced with 10 mM sodium butyrate 48 hours after seeding for 24 hours (MDCK only), and subsequently used for transport experiments.
(§2) In general, after the cell culture medium was removed from both sides of the monolayers, cells were washed at 37 °C with transport buffer of the same composition as described in the previous section. Experiments were started by replacing the medium in the basal compartment with medium containing the putative biomarkers or [^3H]-labeled positive control substrates. The pH of the buffer on the basal side was 7.3 and 6.5 on the apical side for MDCK cells, whereas it was 7.3 on either side for Caco-2 cells. Cells were incubated at 37 °C and the buffer from the apical compartment was taken after 60 minutes for MDCK cells and after 240 minutes for Caco-2 cells. In case of Caco-2 cells, endogenous P-gp was inhibited by adding 2 μM of valspodar to the basal compartment. To measure the cellular accumulation of the test compounds, the remaining medium was removed at the end of the incubation period and the cell monolayers were rapidly rinsed 3 times with ice-cold 0.9% NaCl in water. Filters were detached from the chambers and placed into 500 μL of 80% MeOH containing the aforementioned recovery standards to lyse cells for subsequent LC-MS analysis or into 600 μL of 0.2% SDS (control experiments only). In the control experiments, the radioactivity of the collected apical medium and the solubilized cell monolayers and protein concentrations of the cell lysates were measured in the same way as described for the experiments with HEK cells.
(§3) The intracellular background of all 5 compounds in HEK cells at the beginning of the uptake experiments was investigated 48 hours after seeding without incubation with transport buffer (ie, 0 minutes). […] Then, cells were lysed with ice-cold 80% MeOH containing the aforementioned recovery standards. In addition, the impact of a 5-minute incubation period with transport buffer without added substance was investigated.

human OCT2 and MATE1 = assay: Intracellular accumulation and transcellular transport in double-transfected MDCK-OCT2-MATE1 monolayers; format: in vitro ADME; conditions: for Intracellular concentration in MDCK-OCT2-MATE1 cells vs MDCK-VC cells: 10 μM basal, 60 minutes
Protocol: as §1, §2, §3

[1] = set-up: method as in PMID 39148267; conditions: humans, cited from earlier work; for In Vivo Change of Renal Excretion, Cimetidine: median log2-fold change after treatment with cimetidine; for In Vivo Change of Renal Excretion, Probenecid: median log2-fold change after treatment with probenecid; for In Vivo Change of Renal Excretion, Rifampin: median log2-fold change after treatment with rifampin; for In Vivo Change of Renal Excretion, Verapamil: median log2-fold change after treatment with verapamil
human OAT3 = target: T3, human OAT3 (Homo sapiens, UniProt Q8TCC7); assay: Uptake assay in HEK-OAT3 vs HEK-VC cells; conditions: for In Vitro OAT3 (substrate class): HEK cells
T3 sequence (Q8TCC7 1-542): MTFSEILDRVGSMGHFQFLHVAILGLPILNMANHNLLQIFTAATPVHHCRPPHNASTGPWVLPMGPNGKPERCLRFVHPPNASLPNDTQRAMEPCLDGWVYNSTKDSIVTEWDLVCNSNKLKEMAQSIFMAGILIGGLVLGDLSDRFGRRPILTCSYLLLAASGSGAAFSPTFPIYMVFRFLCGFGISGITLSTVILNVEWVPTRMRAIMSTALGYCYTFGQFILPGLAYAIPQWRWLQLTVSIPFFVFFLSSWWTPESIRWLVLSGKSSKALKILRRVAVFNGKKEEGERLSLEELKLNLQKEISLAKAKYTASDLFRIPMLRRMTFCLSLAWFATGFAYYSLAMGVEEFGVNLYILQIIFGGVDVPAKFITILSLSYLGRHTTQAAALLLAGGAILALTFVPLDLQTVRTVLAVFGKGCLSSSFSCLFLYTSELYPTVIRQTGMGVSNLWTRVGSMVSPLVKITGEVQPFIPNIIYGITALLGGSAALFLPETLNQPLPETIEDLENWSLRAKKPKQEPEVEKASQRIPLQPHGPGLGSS
Protocol: Using both plasmids, stably transfected HEK cells overexpressing human OAT1 or OAT3 were established as described.[24] HEK cell clones with the highest expression of the SLC22A6 or the SLC22A8 mRNA were selected by quantitative reverse-transcription polymerase chain reaction and functionally characterized by standardized uptake assays using PAH (30 μM) or E3S (1 μM) as prototypic substrates for OAT1 (HEK-OAT1) or OAT3 (HEK-OAT3), respectively, as described below.
Uptake assays into HEK cells stably overexpressing transport proteins and their respective VC were performed as previously described with minor modifications.[19] In brief, cells were seeded in poly-D-lysine–coated (0.1 mg/mL) 12-well plates with a density of 7 × 10^5 cells per well. Twenty-four hours after seeding, cells were induced with 10 mM sodium butyrate to enhance protein expression. Transport experiments were performed 48 hours after seeding. Cells were washed once with transport buffer at 37 °C. Afterward, cells were incubated with transport buffer containing (putative) substrates at the desired concentration at 37 °C for 5 minutes. Inhibition of OCT2/MATE1-mediated transport was investigated by adding 50 μM of cimetidine to the above-mentioned transport buffer containing putative substrates. A mixture of unlabeled and [^3H]-labeled substrate was used for control experiments. The buffer for the transport experiments contained 142 mM NaCl, 5 mM KCl, 1 mM K2HPO4, 1.2 mM MgSO4, 1.5 mM CaCl2, 5 mM glucose, and 12.5 mM HEPES. The pH value was set to 7.3, except for HEK-MATE1 cells and their respective VC, in which pH was set to 8.0.
At the end of the incubation period, cells were put on ice, the transport buffer was removed, and cells were rinsed thrice with ice-cold 0.9% NaCl in water. Then, cells were lysed with 700 μL of an ice-cold mixture of MeOH and water (80:20) containing the recovery standards [^2H5]-tryptophan (1 μg/mL) and [^2H3]-N8-acetylspermidine (0.1 μg/mL). Subsequently, lysates were analyzed with liquid chromatography coupled to tandem mass spectrometry (LC-MS).
Data are presented in percentage of respective controls (which were set to 100%) or in pmol × mg protein^–1 × min^–1 for concentration-dependent transport as mean ± SEM. All results were normalized to the mean protein concentrations of the cell lysates in the respective control experiments.

[2] = 60 minutes without added substance
[3] = listed as 5-amino valeric acid betaine

Cn1cnc(CCN)c1 [1-Methylhistamine, 1-methylhistamine]
In Vitro OAT1 (substrate class) (human OAT1): -
Intracellular accumulation in MDCK-MATE1 cells compared to MDCK-VC cells (MATE1): no significant difference
Intracellular concentration in MDCK-OCT2-MATE1 cells vs MDCK-VC cells (human OCT2 and MATE1): significantly higher
In Vivo Change of Renal Excretion, Cimetidine [1]: –2.01 ^c log2-fold change
In Vivo Change of Renal Excretion, Probenecid [1]: –0.25 log2-fold change
In Vivo Change of Renal Excretion, Rifampin [1]: –0.07 log2-fold change
In Vivo Change of Renal Excretion, Verapamil [1]: 0.03 log2-fold change
In Vitro OAT3 (substrate class) (human OAT3): -

C[N+](C)(C)CCCCC(=O)[O-] [5-Amino valeric acid betaine, 5-amino valeric acid betaine]
In Vitro OAT1 (substrate class) (human OAT1): -
Intracellular accumulation in MDCK-MATE1 cells compared to MDCK-VC cells (MATE1): significant reduction
Transcellular basal to apical transport in MDCK-MATE1 cells vs MDCK-VC cells (MATE1): not statistically significant
Intracellular background in MDCK-MATE1 cells (MATE1; [2]): no 5-amino valeric acid betaine could be detected
Intracellular concentration in MDCK-OCT2-MATE1 cells vs MDCK-VC cells (human OCT2 and MATE1): no significant difference
Intracellular background in MDCK-OCT2-MATE1 cells (human OCT2 and MATE1; [2]): no 5-amino valeric acid betaine could be detected
Renal elimination, change after cimetidine ([1]; cimetidine): –3.62 log2-fold change
In Vivo Change of Renal Excretion, Cimetidine [1]: –4.28 ^c log2-fold change
In Vivo Change of Renal Excretion, Cimetidine [1, 3]: –4.28 log2-fold change
In Vivo Change of Renal Excretion, Probenecid [1]: –0.56 ^c log2-fold change
In Vivo Change of Renal Excretion, Probenecid [1, 3]: –1.00 log2-fold change
In Vivo Change of Renal Excretion, Rifampin [1]: –0.21 log2-fold change
In Vivo Change of Renal Excretion, Verapamil [1]: –1.00 log2-fold change
In Vitro OAT3 (substrate class) (human OAT3): -

NCCc1c[nH]c2ccc(O)cc12 [Serotonin, serotonin]
In Vitro OAT1 (substrate class) (human OAT1): -
Intracellular accumulation in MDCK-MATE1 cells compared to MDCK-VC cells (MATE1): no significant difference
Transcellular basal to apical transport in MDCK-MATE1 cells vs MDCK-VC cells (MATE1): considerably increased
Intracellular concentration in MDCK-OCT2-MATE1 cells vs MDCK-VC cells (human OCT2 and MATE1): significantly higher
Plasma concentrations, effect of cimetidine ([1]; cimetidine): did not sensitively change
Urine to plasma ratio, change by cimetidine ([1]; cimetidine): –1.94 log2-fold change
In Vivo Change of Renal Excretion, Cimetidine [1]: –2.89 ^c log2-fold change
In Vivo Change of Renal Excretion, Cimetidine ([1]; listed as serotonin): –2.89 log2-fold change
In Vivo Change of Renal Excretion, Probenecid [1]: 0.06 log2-fold change
In Vivo Change of Renal Excretion, Rifampin [1]: –0.06 log2-fold change
In Vivo Change of Renal Excretion, Verapamil [1]: 0.00 log2-fold change
Uptake ratio in HEK-OAT3 cells compared to HEK-VC cells (human OAT3; 100 μM substrate, 5 minutes): 186%
In Vitro OAT3 (substrate class) (human OAT3): 0 (significant uptake in HEK cells, but less than 300% of respective control cells or significant reduction of transcellular transport in Caco-2 cells, but reduction not below 50% of respective control without valspodar)

NCCc1ccc(O)cc1 [Tyramine, tyramine]
In Vitro OAT1 (substrate class) (human OAT1): -
Intracellular accumulation in MDCK-MATE1 cells compared to MDCK-VC cells (MATE1): no significant difference
Intracellular concentration in MDCK-OCT2-MATE1 cells vs MDCK-VC cells (human OCT2 and MATE1): no significant difference
In Vivo Change of Renal Excretion, Cimetidine [1]: –3.00 ^c log2-fold change
In Vivo Change of Renal Excretion, Probenecid [1]: –0.82 log2-fold change
In Vivo Change of Renal Excretion, Rifampin [1]: –0.11 log2-fold change
In Vivo Change of Renal Excretion, Verapamil [1]: –0.22 log2-fold change
Uptake ratio in HEK-OAT3 cells compared to HEK-VC cells (human OAT3; 10 μM substrate, 5 minutes): 230%
Uptake ratio for OAT3 (HEK-OAT3 vs HEK-VC) (human OAT3; 5 minutes): above 2 fold
In Vitro OAT3 (substrate class) (human OAT3): 0 (significant uptake in HEK cells, but less than 300% of respective control cells or significant reduction of transcellular transport in Caco-2 cells, but reduction not below 50% of respective control without valspodar)
